Patent US20120214846A1, “HEXAHYDROCYCLOPENTYL[F]INDAZOLE PYRIDYL ETHANOLS AND DERIVATIVES THEREOF AS SELECTIVE GLUCOCORTICOID RECEPTOR MODULATORS” (MERCK SHARP & DOHME CORP, priority 2009, published 2012)
Like-named read-outs stand apart in the source and are kept apart here.

Columns and labels:
[1] = molecular target: T1, GR (Homo sapiens, UniProt P04150); assay: Transrepression Assay (GITAR), TNFα-β-lactamase reporter, U937 cells; assay type: cell-based; parameters: U937 cells contain an endogenous glucocorticoid receptor (GR); endogenous in cells; host or cells: U937 cells stably transfected with the TNF-alpha promoter beta-lactamase reporter
T1 sequence (P04150 1-777): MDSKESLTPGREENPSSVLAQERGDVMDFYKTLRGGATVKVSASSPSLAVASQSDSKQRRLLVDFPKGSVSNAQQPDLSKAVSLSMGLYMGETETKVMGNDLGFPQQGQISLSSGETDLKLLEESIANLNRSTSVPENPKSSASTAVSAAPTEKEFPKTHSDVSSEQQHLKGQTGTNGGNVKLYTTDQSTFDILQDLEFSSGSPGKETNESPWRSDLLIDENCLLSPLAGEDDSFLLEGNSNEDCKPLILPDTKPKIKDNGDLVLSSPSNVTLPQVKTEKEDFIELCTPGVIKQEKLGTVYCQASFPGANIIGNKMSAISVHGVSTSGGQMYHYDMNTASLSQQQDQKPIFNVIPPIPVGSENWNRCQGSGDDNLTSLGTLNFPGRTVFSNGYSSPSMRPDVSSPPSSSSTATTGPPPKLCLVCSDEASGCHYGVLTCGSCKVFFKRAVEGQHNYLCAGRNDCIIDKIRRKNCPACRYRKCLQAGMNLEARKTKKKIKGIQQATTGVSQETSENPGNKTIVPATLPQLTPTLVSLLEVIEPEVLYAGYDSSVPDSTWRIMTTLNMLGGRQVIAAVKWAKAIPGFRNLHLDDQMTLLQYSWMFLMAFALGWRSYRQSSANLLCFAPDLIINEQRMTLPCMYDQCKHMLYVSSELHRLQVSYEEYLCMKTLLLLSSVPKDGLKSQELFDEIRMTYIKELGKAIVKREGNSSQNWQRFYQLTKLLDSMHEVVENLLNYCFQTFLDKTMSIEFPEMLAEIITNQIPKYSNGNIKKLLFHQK
Excerpt: This assay assesses the ability of test compounds to control transcription from the TNFα-β-lactamase reporter gene in U937 cells, a human myelomonocytic leukemia cell line that naturally expresses the human GR. The assay measures compound dependent-repression of the TNFa promoter linked to a reporter gene.
The human U937 cells that had been stablely transfected with the TNF-α promoter driving […] are used for this assay. U937 cells contain an endogenous glucocorticoid receptor (GR). […] 50,000 cells/well are plated in 96 well black-walled plates the day of assay. Test compounds are added 10 μL/well, and cells are incubated at 37° C. for 30˜45 min. For assaying compounds, first dilute 1:10 in DMSO to make 1 mM, then further dilute 1:100 in medium to make 10× stock prior to adding to the cells. Add 50 ng/ml PMA (Sigma, cat#P8139) 10 μL/well to a final concentration 5 ng/ml, and 1 μg/ml LPS (Sigma, cat#L4130) 10 μL/well to a final concentration 100 ng/ml. Incubate cells at 37° C. overnight for ˜18 hr. PMA is stored frozen as 100 μg/ml stock in DMSO. Dilute 1:10 in DMSO for a working stock of […] and store at −20 C. For assaying, dilute the 10 μg/ml working stock 1:200 in medium to make a 10× solution (50 ng/ml). Store frozen LPS at 1 mg/ml in PBS, dilute 1:1000 in medium to make 10× (1 μg/ml) for the assay. Add 6× loading buffer (CCF2-AM) 20 μL/well, and incubate at room temperature for 70˜90 min. […] The activity repressed by 100 nM dexamethasone alone is set as 100% activity.

[2] = molecular target: T1, GR; assay: GR Ligand Binding Assay (GR BIND), HeLa cell lysate, 3H-DEX; parameters: endogenous in cells; host or cells: HeLa (ATCC) cell lysate supernatant
Description: Binding Buffer: TEGM (10 mM Tris-HCl, 1 mM EDTA, 10% glycerol, 1 mM beta-mecaptoethanol, 10 mM Sodium Molybdate, pH 7.2)
Phenol red-free Trypsin-EDTA is diluted in the same PBS 1:10. The cell layers are rinsed with 1× Trypsin, extra Trypsin is poured out, and the cell layers are incubated at 37° C. for ˜2 min. The flask is tapped and checked for signs of cell detachment. Once the cells begin to slide off the flask, the complete media is added. The cells are counted at this point, then diluted to the appropriate concentration and split into flasks or dishes for further culturing (Usually 1:3 to 1:6 dilution).
The cell pellet is washed twice with TEGM (10 mM Tris-HCl, 1 mM EDTA, 10% glycerol, 1 mM beta-mercaptoethanol, 10 mM Sodium Molybdate, pH 7.2). […] The cell suspension is snap frozen in liquid nitrogen or ethanol/dry ice bath and transferred to −80° C. freezer on dry ice. Before setting up the binding assay, the frozen samples are left on ice-water to just thaw (˜1 hr). Then the samples are centrifuged at 12,500 g to 20,000 g for 30 min at 4° C. The supernatant is used to set-up assay right away. If using 50 μL of supernatant, the test compound can be prepared in 50 μL of the TEGM buffer.
1×TEGM buffer is prepared, and the isotope-containing assay mixture is prepared in the following order: EtOH (2% final concentration in reaction), 3H-DEX (Amersham Biosciences) and 1×TEGM. [e.g. For 100 samples, 200 μL (100×2) of EtOH+4.25 μL of 1:10 3H-Dex stock+2300 μL (100×23) 1×TEGM]. The compound is serially diluted, e.g., if starting final conc. is 1 μM, and the compound is in 25 μL of solution, for duplicate samples, 75 μL of 4×1 μM solution is made and 3 μL of 100 μM is added to 72 μL of buffer, and 1:5 serial dilution.
25 μL of 3H-DEX (6 nM) trace and 25 μl, compound solution are first mixed together, followed by addition of 50 μL receptor solution. The reaction is gently mixed, spun briefly at about 200 rpm and incubated at 4° C. overnight. 100 μL of 50% HAP slurry is prepared and added to the incubated reaction which is then vortexed and incubated on ice for 5 to 10 minutes. The reaction mixture is vortexed twice more to resuspend HAP while incubating reaction. The samples in 96-well format are then washed in wash buffer using The FilterMate™ Universal Harvester plate washer (Packard). The washing process transfers HAP pellet containing ligand-bound expressed receptor to Unifilter-96 GF/B filter plate (Packard). The HAP pellet on the filter plate is incubated with 50 μL of MICROSCINT (Packard) scintillint for 30 minutes before being counted on the TopCount microscintillation counter (Packard). IC50s are calculated using DEX as a reference.

[3] = U937 cells, inflection point, read-out: Transrepression U937 Cells GITAR IP
[4] = U-937, U937 cells, activity repressed by 100 nM dexamethasone set as 100%, read-out: Transrepression U937 Cells GITAR Emax
[5] = HeLa cell lysate, 3H-DEX, read-out: GR BIND Ki
[6] = U937 cells, activity repressed by 100 nM dexamethasone set as 100%
[7] = Table 4, literature compounds, read-out: GITAR IP
[8] = U-937, Table 4, literature compounds, read-out: GITAR EMAX
[9] = Table 4, literature compounds, read-out: GR BIND

EC50 [1, 3] [nM]	Ki [2, 5] [nM]	Transrepression U937 Cells GITAR Emax [1, 6] [%]	SMILES	Emax [1, 4] [%]	EC50 [1, 7] [nM]	Emax [1, 8] [%]	Ki [2, 9] [nM]
67.5	2.6	–	C[C@]12Cc3cnn(-c4ccc(F)cc4)c3C=C1CC[C@@]2(O)CC(O)c1cc(C(F)(F)F)ccn1 (single isomer, unassigned) [Example 5a]	89.1	–	–	–
145	4.3	75.6	C[C@]12Cc3cnn(-c4ccc(F)cc4)c3C=C1CC[C@@]2(O)CC(O)c1cc(C(F)(F)F)ccn1 (single isomer, unassigned) [Example 5b]	–	–	–	–
441	10.8	–	C[C@]12Cc3cnn(-c4ccc(F)cc4)c3C=C1CC[C@@]2(O)CC(O)c1ccc(F)cn1 (single isomer, unassigned) [Example 7a]	75.2	–	–	–
248	4.8	83.0	C[C@]12Cc3cnn(-c4ccc(F)cc4)c3C=C1CC[C@@]2(O)CC(O)c1ccc(F)cn1 (single isomer, unassigned) [Example 7b]	–	–	–	–
230	3.4	97.5	C[C@]12Cc3cnn(-c4ccc(F)cc4)c3C=C1CC[C@@]2(O)CC(O)c1cc(Br)ccn1 (single isomer, unassigned) [Example 10a]	–	–	–	–
48	1.7	64.3	C[C@]12Cc3cnn(-c4ccc(F)cc4)c3C=C1CC[C@@]2(O)CC(O)c1cc(Br)ccn1 (single isomer, unassigned) [Example 10b]	–	–	–	–
–	–	–	C[C@]12Cc3cnn(-c4ccc(F)cc4)c3C=C1CC[C@@]2(O)C#Cc1ccccc1 [Ex. 1 WO 04/075840 A2, reference compound]	–	1660	12.8	1.18
–	–	–	C[C@]12Cc3cnn(-c4ccc(F)cc4)c3C=C1CCC[C@@H]2[C@@H](O)Cc1ccccc1 [Ex. 22 WO 03/086294 A2, reference compound]	–	242	76.8	1.26
–	–	–	C[C@]12Cc3cnn(-c4ccc(F)cc4)c3C=C1CCC[C@@H]2[C@@H](O)CCc1ccccc1 [Ex. 30 WO 03/086294 A2, reference compound]	–	165	82.9	1.21
–	–	–	C[C@]12Cc3cnn(-c4ccc(F)cc4)c3C=C1CCC[C@@H]2[C@@H](O)c1ccccc1 [Ex. 35 WO 03/86294 A2, reference compound]	–	200	78.8	1.17
–	–	–	CO[C@@]1(CCc2ccccc2Cl)CCC2=Cc3c(cnn3-c3ccc(F)cc3)C[C@@]21C [Ex. 103 WO 04/075840 A2, reference compound]	–	191	93.3	0.23
360	7.2	–	C[C@]12Cc3cnn(-c4ccc(F)cc4)c3C=C1CC[C@@]2(O)CC(O)c1ncccc1F (stereo partly drawn) [Example 4, (4αS,5R)-1-(4-fluorophenyl)-5-[2-(3-fluoropyridin-2-yl)-2-hydroxyethyl]-4α-methyl-1,4,4α,5,6,7-hexahydrocyclopenta[f]indazol-5-ol]	70.6	–	–	–
344	2.7	–	C[C@]12Cc3cnn(-c4ccc(F)cc4)c3C=C1CC[C@@]2(O)CC(O)c1ccc(C(F)(F)F)cn1 (stereo partly drawn) [Example 6, (4αS,5R)-1-(4-fluorophenyl)-5-{2-hydroxy-2-[5-(trifluoromethyl)pyridin-2-yl]ethyl}-4α-methyl-1,4,4α,5,6,7-hexahydrocyclopenta[f]indazol-5-ol]	76.2	–	–	–

SMILES	EC50 [1, 3] [nM]	Ki [2, 5] [nM]	Transrepression U937 Cells GITAR Emax [1, 6] [%]	Emax [1, 4] [%]	EC50 [1, 7] [nM]	Emax [1, 8] [%]	Ki [2, 9] [nM]
Cc1cccnc1C(O)C[C@]1(O)CCC2=Cc3c(cnn3-c3ccc(F)cc3)C[C@@]21C (single isomer, unassigned) [Example 1a]	95.2	6.7	–	71.3	–	–	–
Cc1cccnc1C(O)C[C@]1(O)CCC2=Cc3c(cnn3-c3ccc(F)cc3)C[C@@]21C (single isomer, unassigned) [Example 1b]	233	3.9	58.3	–	–	–	–
C[C@]12Cc3cnn(-c4ccc(F)cc4)c3C=C1CC[C@@]2(O)CC(O)c1ccccn1 (single isomer, unassigned) [Example 2a]	237	11.7	–	63.5	–	–	–
C[C@]12Cc3cnn(-c4ccc(F)cc4)c3C=C1CC[C@@]2(O)CC(O)c1ccccn1 (single isomer, unassigned) [Example 2b]	128	6.4	68.6	–	–	–	–
C[C@]12Cc3cnn(-c4ccc(F)cc4)c3C=C1CC[C@@]2(O)CC(O)c1cc(Cl)ccn1 (single isomer, unassigned) [Example 8a]	96.7	5	–	77.9	–	–	–
C[C@]12Cc3cnn(-c4ccc(F)cc4)c3C=C1CC[C@@]2(O)CC(O)c1cc(Cl)ccn1 (single isomer, unassigned) [Example 8b]	23.7	2.1	91.1	–	–	–	–
COc1ccnc(C(O)C[C@]2(O)CCC3=Cc4c(cnn4-c4ccc(F)cc4)C[C@@]32C)c1 (stereo partly drawn) [Example 3, (4αS,5R)-1-(4-fluorophenyl)-5-[2-hydroxy-2-(4-methoxypyridin-2-yl)ethyl]-4α-methyl-1,4,4α,5,6,7-hexahydrocyclopenta[f]indazol-5-ol]	111	4.4	–	81.3	–	–	–
